For data set [1] the following is noted: in vivo; cited from earlier work.
For the next data set, the system named is human herpesviruses. Description: Survival with acyclovir given ad libitum in the drink (vertical transmission model). In kind it is in vivo, mice. The settings on record: acyclovir ad libitum in drinking water, high dose (as printed, final daily dose 1.50 mg), from the day of the vaginal plug. The procedure: Assuming that a mouse drinks about 3 ml a day, 2 working dilutions ([…] so that the final daily dose was 0.75 mg, and […] so that the final daily dose was 1.50 mg) were used.

For data set [2], the system named is herpes simplex virus type 1 (HSV-1) of the KOS strain. In words: Viral load in organs of mothers and progeny by quantitative PCR after acyclovir treatment of infected mothers. The class given is in vivo, mice. The procedure: All the animals included in the experimental process were 14-week old female mice of the C57Bl/6 lineage. Between two and three adult mice were used per analysis group and between 13 and 25 neonates, depending on the availability of animals. […] All the animals went through a quarantine period and were treated with strict precautions against contamination during inoculation and dissection. The animals were intraperitoneally infected with a dose 10^6 pfu of herpes simplex virus type 1 (HSV-1) of the KOS strain (provided by el Dr. L. Carrasco, Centro de Biologia Molecular Severo Ochoa, Universidad Autónoma of Madrid). […] The first group of mice was not given any treatment. […] Therefore the antiviral concentration administered per dose and mouse was 0.25 mg (10 mg/kg per mouse, far from the toxicity limit of 80 mg/kg cited above), with a total daily dose of 0.75 mg/day.
The dissected organs in the adult animals were the following: blood, ovaries, adrenal gland, spinal cord, brain, cerebellum and trigeminal ganglia. The entire brain was separated into three rough regions: midbrain, ventricles and cerebral cortex. In the neonates, the dissected organs were blood, spinal cord and encephalon. DNA was extracted using conventional methods (NucleoSpin®, Cat. K3053-2, ClonTech, USA). The viral load of the different organs was analyzed by means of quantitative PCR. […] Primers specific for the sequence of the viral polymerase (pol) gene were used to detect the virus (SEQ. ID. NO: 3 and SEQ. ID. NO: 4) (120 bp amplicon). The PCR conditions were one cycle of 95°C for 10 minutes, followed by 45 cycles at 95°C for 30 seconds, 55°C (for β-actin) or 60°C (for viral polymerase) for 30 seconds, and a last cycle of 72°C for 40 seconds. The virus concentration range used for optimizing the quantitative PCR standard curve was expressed as plaque forming units (pfu). For calibrating the β-actin gene, nanograms were used as the unit of this endogenous gene. The identity of the amplified products was checked by analysis of the denaturation curves, by gel electrophoresis and restriction analysis.

Data set [3] shares this test system. Description: Neonate mortality after acyclovir treatment of HSV-1 infected mothers (vertical mother-progeny transmission model). The following applies: neonates of HSV-1 infected mothers, 0.25 mg per dose three times a day, from five days before crossbreeding until birth. In kind it is in vivo, mice. The procedure:
All the animals included in the experimental process were 14-week old female mice of the C57Bl/6 lineage. Between two and three adult mice were used per analysis group and between 13 and 25 neonates, depending on the availability of animals. The experiments were performed strictly following the Guidance on the Operation of Animals (Scientific Procedures, Act 1986), supervised by personnel of the Animal house of the Centro de Biologia Molecular Severo Ochoa. All the animals went through a quarantine period and were treated with strict precautions against contamination during inoculation and dissection. The animals were intraperitoneally infected with a dose 10^6 pfu of herpes simplex virus type 1 (HSV-1) of the KOS strain (provided by el Dr. L. Carrasco, Centro de Biologia Molecular Severo Ochoa, Universidad Autónoma of Madrid). […] The first group of mice was not given any treatment. […] Therefore the antiviral concentration administered per dose and mouse was 0.25 mg (10 mg/kg per mouse, far from the toxicity limit of 80 mg/kg cited above), with a total daily dose of 0.75 mg/day.
After birth and sacrifice, the progeny survival rates and the mother and neonate viral loads were analyzed. The adult animals remained asymptomatic during the entire experimental process, suffering no mortality.

The mark [4] stands for this setting: oral acyclovir, daily dose 0.75 mg.

With `Nc1nc2c(ncn2COCCO)c(=O)[nH]1` [acyclovir], the toxicity limit in data set [1] is given as 80 mg/kg. Moreover, in the data set on human herpesviruses, the “survival of the animals” value was “higher”. In data set [2] (acyclovir daily dose of 0.75 mg, both administration routes (oral and subcutaneous), Figure 7), the “viral loads both in the mothers and in the progeny” value is given as “significant reduction”. Also, the “viral levels in all the analyzed organs of the descendants” value in data set [2] (oral acyclovir to the mothers, daily dose 0.75 mg, blood, spinal cord, encephalon) is “almost complete elimination”. Further, in data set [2] (setting [4]), the “virus levels in blood of the mothers” value is given as “virtually undetectable” and the “virus levels in the trigeminal ganglia of the mothers” value is on record as “virtually undetectable”. In addition, the “levels of the virus in the progeny's CNS” value in data set [2] (subcutaneous acyclovir to mothers, daily dose 0.75 mg, Figure 7B) is “considerably lower levels of the virus”. Also, the “levels of the virus in all the analyzed organs of the mother” value in data set [2] (subcutaneous acyclovir, daily dose 0.75 mg, Figure 7A) is “considerably lower levels of the virus”. In data set [3] (oral acyclovir to mothers, none of the 17 animals), the mortality result is “no mortality was observed”. The molecule further returned a mortality rate in data set [3] (subcutaneous acyclovir to mothers, 1 out of 25) of 4.0%.

Source of the values: patent EP1769677B1, “METHOD OF IDENTIFYING THERAPEUTIC COMPOUNDS WHICH CAN BE USED FOR THE TREATMENT AND/OR PREVENTION OF INFECTIONS AND DISEASES CAUSED BY HUMAN HERPESVIRUSES” (Universidad Aut Noma de Madrid, priority 2004, dated 2005).
